The source of these data is US9834542B2, “LXR modulators” (BRISTOL-MYERS SQUIBB COMPANY, priority 2013, dated 2017).

Each structure is given as a SMILES string.

The target of the assay is T1, LXRβ (Homo sapiens, UniProt P55055).
T1 construct: Co-transfection expression plasmids, comprising full-length LXRα (pCMX-h LXRα[…] or LXRβ (pCMX-hLXRβ)); expressed in transfected cells; host or cells: CV-1 African Green Monkey Kidney Cells
T1 sequence (P55055 1-460): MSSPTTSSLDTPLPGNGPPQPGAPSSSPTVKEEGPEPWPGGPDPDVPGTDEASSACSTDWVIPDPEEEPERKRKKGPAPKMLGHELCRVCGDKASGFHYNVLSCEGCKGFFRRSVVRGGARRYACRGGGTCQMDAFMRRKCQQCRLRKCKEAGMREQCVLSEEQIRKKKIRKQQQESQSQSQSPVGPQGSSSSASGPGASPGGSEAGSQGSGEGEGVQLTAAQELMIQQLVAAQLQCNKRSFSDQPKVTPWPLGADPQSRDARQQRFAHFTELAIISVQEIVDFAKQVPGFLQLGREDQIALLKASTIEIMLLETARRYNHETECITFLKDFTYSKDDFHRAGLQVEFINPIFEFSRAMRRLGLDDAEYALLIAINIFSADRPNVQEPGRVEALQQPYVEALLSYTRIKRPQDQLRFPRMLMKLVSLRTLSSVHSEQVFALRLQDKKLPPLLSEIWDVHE
T1 sequence (P19793 1-462 partner): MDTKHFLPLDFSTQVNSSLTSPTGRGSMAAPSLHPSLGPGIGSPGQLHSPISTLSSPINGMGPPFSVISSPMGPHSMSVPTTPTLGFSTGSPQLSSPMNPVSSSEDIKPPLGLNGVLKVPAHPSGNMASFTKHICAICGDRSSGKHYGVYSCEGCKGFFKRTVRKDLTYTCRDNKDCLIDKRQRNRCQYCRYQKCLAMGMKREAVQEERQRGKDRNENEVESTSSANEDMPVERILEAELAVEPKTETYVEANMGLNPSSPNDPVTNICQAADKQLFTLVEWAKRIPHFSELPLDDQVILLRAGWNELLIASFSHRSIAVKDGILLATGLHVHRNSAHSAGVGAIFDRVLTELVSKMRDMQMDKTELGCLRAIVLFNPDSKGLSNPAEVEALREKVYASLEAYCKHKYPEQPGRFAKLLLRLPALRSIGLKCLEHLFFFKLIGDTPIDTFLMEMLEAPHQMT
Nature of the assay: Co-transfection assay (LXRE luciferase reporter), LXRβ. The assay is classed as cell-based. The following applies: for EC50: CV-1 cells transfected with pCMX-hLXRβ and LXREx1-Tk-Luciferase, 20 hours incubation; for Emax: LXRβ co-transfection, relative to high control 1-(2,4-difluorobenzyl)-2-oxo-6-(4-phenoxyphenyl)-4-(trifluoromethyl)-1,2-dihydropyridine-3-carbonitrile, read-out: % Efficacy. Summed up:
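Luciferase output from an LXRE-Tk reporter measured after 20 h, 37 °C compound exposure of transiently transfected CV-1 cells expressing human LXRβ with endogenous RXR. EC50 fitted from 11-point half-log dose responses (mean of ≥2 runs); % efficacy versus maximal response of the reference agonist.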
A general note: A reporter such as luciferase makes a cellular process visible.

On to `Cc1ccc(-c2cnnn2-c2cc(-c3cccc(S(C)(=O)=O)c3)ccc2-n2cc(C(F)F)nc2C)cc1` [Example 168, 1-{4-[4-(difluoromethyl)-2-methyl-1H-imidazol-1-yl]-3′-(methylsulfonyl)biphenyl-3-yl}-5-(4-methylphenyl)-1H-1,2,3-triazole], for which the concentration for a half-maximal effect (EC50) (in general, the concentration giving half of the maximal effect) was determined as 945 nM and the Emax turned out to be 81%.
For `Cc1nc(C(F)F)cn1-c1ccc(-c2cccc(S(C)(=O)=O)c2)cc1-n1nncc1-c1ccc(OC(F)(F)F)c(F)c1` [Example 169, 1-{4-[4-(difluoromethyl)-2-methyl-1H-imidazol-1-yl]-3′-(methylsulfonyl)biphenyl-3-yl}-5-{3-fluoro-4-[(trifluoromethyl)oxy]phenyl}-1H-1,2,3-triazole], in that order: 570 nM and 93%.
In the case of `CS(=O)(=O)c1cccc(-c2ccc(-n3cnc(C(F)F)c3)c(-n3nncc3-c3ccc(OC(F)(F)F)cc3)c2)c1` [Example 170, 1-{4-[4-(difluoromethyl)-1H-imidazol-1-yl]-3′-(methylsulfonyl)biphenyl-3-yl}-5-{4-[(trifluoromethyl)oxy]phenyl}-1H-1,2,3-triazole], the EC50 turned out to be 3330 nM and the Emax worked out at 92%.
For `Cc1nc(C(F)F)cn1-c1ccc(-c2cccc(S(C)(=O)=O)c2)cc1-n1nncc1-c1ccccc1` [Example 171, 1-{4-[4-(difluoromethyl)-2-methyl-1H-imidazol-1-yl]-3′-(methylsulfonyl)biphenyl-3-yl}-5-phenyl-1H-1,2,3-triazole], in that order: 3090 nM and 60%.
For `Cc1nc(C(F)F)c(Cl)n1-c1ccc(-c2cccc(S(C)(=O)=O)c2)cc1-n1nncc1-c1ccc(OC(F)(F)F)cc1` [Example 172, 1-{4-[5-chloro-4-(difluoromethyl)-2-methyl-1H-imidazol-1-yl]-3′-(methylsulfonyl)biphenyl-3-yl}-5-{4-[(trifluoromethyl)oxy]phenyl}-1H-1,2,3-triazole], in that order: 1030 nM and 159%.
On to `Cc1nc(C(F)F)c(Cl)n1-c1ccc(-c2cc(F)c(CO)c(S(C)(=O)=O)c2)cc1-n1nncc1-c1ccc(OC(F)(F)F)cc1` [Example 173, {4′-[5-chloro-4-(difluoromethyl)-2-methyl-1H-imidazol-1-yl]-3-fluoro-5-(methylsulfonyl)-3′-(5-{4-[(trifluoromethyl)oxy]phenyl}-1H-1,2,3-triazol-1-yl)biphenyl-4-yl}methanol], for which a half-maximal response (EC50) required 264 nM and the Emax was found to be 148%.
For `Cc1nc(C(C)(F)F)cn1-c1ccc(-c2cc(F)c(CO)c(S(C)(=O)=O)c2)cc1-n1nncc1-c1ccc(OC(F)(F)F)cc1` [Example 174, {4′-[4-(1,1-difluoroethyl)-2-methyl-1H-imidazol-1-yl]-3-fluoro-5-(methylsulfonyl)-3′-(5-{4-[(trifluoromethyl)oxy]phenyl}-1H-1,2,3-triazol-1-yl)biphenyl-4-yl}methanol], in that order: 467 nM and 88%.
With `CNS(=O)(=O)c1cccc(-c2ccc(-n3cc(C(C)(F)F)nc3C)c(-n3nncc3-c3ccc(OC(F)(F)F)cc3)c2)c1` [Example 175, 4′-[4-(1,1-difluoroethyl)-2-methyl-1H-imidazol-1-yl]-N-methyl-3′-(5-{4-[(trifluoromethyl)oxy]phenyl}-1H-1,2,3-triazol-1-yl)biphenyl-3-sulfonamide], the concentration giving a half-maximal response (EC50) was 315 nM and the Emax was 79%.
Take `Cc1nc(C(C)(F)F)cn1-c1ccc(-c2cccc(S(C)(=O)=O)c2)cc1-n1nncc1-c1ccc(Cl)cc1` [Example 176, 5-(4-chlorophenyl)-1-{4-[4-(1,1-difluoroethyl)-2-methyl-1H-imidazol-1-yl]-3′-(methylsulfonyl)biphenyl-3-yl}-1H-1,2,3-triazole]: the EC50 was 792 nM and the Emax worked out at 68%.
